“And” between values parts separate entries of the source, which are not always exact repeats. Identical values can stand only once. “Also recorded” adds a separate entry of the source.
What was measured:
Format in all cases: in vivo, human
[1] = system: Herpes simplex I and II (HSV I and II); assay: Treatment and suppression of cold sores in patients; conditions: for time to resolution of cold sore: Singulair resumed vs the patient's previous sores treated with antivirals
Protocol: Patient had recently discontinued use of Singulair® as a treatment for asthma. […] The cold sore resolved in three days after treatment with Singulair® was resumed. The rate of resolution was faster than the resolution of previous sores which were treated with antiviral treatments such as those marketed under the trademarks Zovirax® or Famvir® (approximately seven to ten days). During the subsequent two years, patient took Singulair® on a daily basis (10 mg, twice a day).
No cold sore was present at the time therapy was started. […] Within five days of termination of treatment, a cold sore developed.

carpal tunnel syndrome = assay: Treatment of patients with carpal tunnel syndrome; conditions: for carpal tunnel symptoms, response to treatment: 10 mg per day, taken orally
Protocol: A carpenter who was experiencing the symptoms of carpal tunnel syndrome was treated with 10 mg of Singulair® per day, taken orally, for four weeks. They continued to perform their daily occupational activities throughout the period of treatment. […] Patient was then treated for short courses of 10 mg of Singulair® per day, whenever symptoms were present, until symptoms subsided.
A patient who worked as a billing clerk had carpal tunnel symptoms which had not responded to non-surgical methods of treatment. Patient was treated with Singulair® at 10 mg daily, taken orally.
A patient who works as a data entry clerk, experienced severe carpal tunnel symptoms. They ceased their occupational activities and began treatment with Singulair® at 10 mg per day, taken orally.
Patient was an insurance clerk who experienced severe carpal tunnel symptoms which had not abated, even after carpal tunnel decompression surgery. For years following surgery, they had experienced severe carpal tunnel symptoms.
Patient was an assembly line worker at an automobile production facility who was experiencing symptoms of carpal tunnel syndrome was treated with 10 mg of Singulair® per day taken orally. […] They required continuous treatment with 10 mg of Singulair® per day taken orally to maintain remission of their symptoms.

cubital tunnel syndrome = assay: Treatment of a patient with cubital tunnel syndrome; conditions: 10 mg daily, taken orally, four weeks; single patient, prior NSAIDs and splints failed
Protocol: Patient was a golfer who experienced symptoms of cubital tunnel syndrome. […] Patient was treated with Singulair® at 10 mg daily, taken orally. […] No further treatment was required despite their return to their regular golfing activity.

thoracic outlet syndrome = assay: Treatment of a patient with thoracic outlet syndrome; conditions: 10 mg per day, taken orally, four weeks; single patient
Protocol: Patient was treated with Singulair® at 10 mg per day taken orally. […] No further treatment was required.

[2] = system: post-herpetic neuralgia due to a latent Herpes infection; assay: Treatment of post-herpetic neuralgia in patients; conditions: 10 mg per day, taken orally; single patient, neuralgia developed despite initial anti-viral agents
Protocol: (§1) Patient had post-herpetic neuralgia due to a latent Herpes infection. Neuralgia developed despite initial treatment with anti-viral agents as per standard treatment recommendations. Patient began treatment with Singulair® (10 mg per day, taken orally). The post-herpetic neuralgia resolved in ten days. No further treatment was required.
as §1, with “had postherpetic” for “had post-herpetic”, “in 14” for “in ten”

[3] = system: natural graying process of scalp hair; assay: Inhibition of graying of scalp hair in a patient; conditions: 10 mg per day, taken orally, two years and four months continuous; single patient with graying of temple regions
Source text: Patient had noted the onset of graying of the temple regions of their hair.

Row | SMILES | time to resolution of cold sore ([1]; single patient) | carpal tunnel symptoms, response to treatment (carpal tunnel syndrome; four weeks, single patient) | carpal tunnel symptoms, response to treatment (carpal tunnel syndrome; six weeks, single patient, occupational activities continued) | carpal tunnel symptoms after cessation of treatment (carpal tunnel syndrome; after treatment was stopped, single patient) | carpal tunnel symptoms at follow-up (carpal tunnel syndrome; follow-up as in each example: forty weeks (Ex. 2), recheck two weeks after return to work on treatment (Ex. 3), continuing treatment (Ex. 4)) | carpal tunnel symptoms on resumption of treatment (carpal tunnel syndrome; treatment resumed after relapse, single patient) | cubital tunnel symptoms, response to treatment (cubital tunnel syndrome) | thoracic outlet syndrome symptoms, response to treatment (thoracic outlet syndrome) | cold sores under continuous daily treatment ([1]; 10 mg per day orally, ten months, patient with history of average two cold sores per month) | development of new cold sore under daily treatment ([1]; 10 mg, twice a day, two years, high ultraviolet light exposure, single patient) | time to cold sore after termination of treatment ([1]; after ten months of treatment, same patient) | cold sores after resumption of treatment ([1]; thirteen months after resumption of treatment, same patient) | time to resolution of post-herpetic neuralgia [2] | progression of graying of scalp hair [3]
1 | CC(=O)OCC(CCn1cnc2cnc(N)nc21)COC(C)=O [Famvir®] | seven to ten | – | – | – | – | – | – | – | – | – | – | – | – | –
2 | CC(C)(O)c1ccccc1CC[C@@H](SCC1(CC(=O)O)CC1)c1cccc(C=Cc2ccc3ccc(Cl)cc3n2)c1 [Singulair®, 1-(((1(R)-(3-(2-(7-chloro-2-quinolinyl)ethenyl)phenyl)-3-(2-(2-hydroxy-2-propyl)phenyl)propyl)thio)methyl)cyclopropaneacetic acid] | three | complete remission of symptoms; also recorded: symptoms had completely resolved | complete resolution of their carpal tunnel symptoms; also recorded: symptoms abated | the symptoms recurred; also recorded: remained symptom-free thereafter; also recorded: symptoms rapidly returned | remains symptom-free | Symptoms abated | Symptoms were entirely abated | symptoms had completely resolved | remained free of cold sores | no new sore developed | five | remained free of cold sores | ten and 14 days | No progression of the graying process
3 | Nc1nc2c(ncn2COCCO)c(=O)[nH]1 [Zovirax®] | seven to ten | – | – | – | – | – | – | – | – | – | – | – | – | –

Source: US6696466B1, “Methods of treating select neuronal inflammatory disorders using hydroxyalkylquinolines” (priority 2000, dated 2004)
